The record followed here is PubChem BioAssay AID449749 (Broad Institute, 2010).

Structures are written as SMILES. Records with an inconclusive call do not appear. Active and inactive are the calls of the source. How the calls were made is not given here. Some results are limits rather than exact numbers.

Chain of Replicative DNA helicase DnaB (Mycobacterium tuberculosis (strain ATCC 25618 / H37Rv)) (P9WMR3 whole entry, looked up): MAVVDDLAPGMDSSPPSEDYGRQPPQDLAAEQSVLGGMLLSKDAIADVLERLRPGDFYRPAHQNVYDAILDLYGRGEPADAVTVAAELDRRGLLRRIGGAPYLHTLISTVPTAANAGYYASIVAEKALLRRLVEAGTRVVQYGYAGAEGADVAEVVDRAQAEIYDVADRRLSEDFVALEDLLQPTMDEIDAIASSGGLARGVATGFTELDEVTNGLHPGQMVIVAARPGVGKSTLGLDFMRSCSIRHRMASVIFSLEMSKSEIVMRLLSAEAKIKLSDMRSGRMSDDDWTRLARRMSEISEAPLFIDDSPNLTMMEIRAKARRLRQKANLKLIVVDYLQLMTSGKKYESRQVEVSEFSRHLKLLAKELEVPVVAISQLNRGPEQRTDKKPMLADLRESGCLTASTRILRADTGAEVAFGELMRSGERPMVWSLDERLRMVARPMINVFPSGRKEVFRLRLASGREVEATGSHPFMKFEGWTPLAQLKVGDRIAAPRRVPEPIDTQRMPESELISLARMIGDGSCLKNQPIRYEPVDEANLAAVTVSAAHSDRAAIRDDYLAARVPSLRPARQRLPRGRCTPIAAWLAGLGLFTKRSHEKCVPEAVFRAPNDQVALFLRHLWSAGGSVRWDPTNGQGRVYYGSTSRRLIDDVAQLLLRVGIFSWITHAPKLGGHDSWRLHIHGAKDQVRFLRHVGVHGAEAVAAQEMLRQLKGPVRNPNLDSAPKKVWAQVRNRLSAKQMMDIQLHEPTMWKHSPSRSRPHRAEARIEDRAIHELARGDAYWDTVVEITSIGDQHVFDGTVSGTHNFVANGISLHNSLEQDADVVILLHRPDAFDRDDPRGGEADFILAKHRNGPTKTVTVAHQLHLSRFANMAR

The test concerns the target Replicative DNA helicase DnaB (Mycobacterium tuberculosis (strain ATCC 25618 / H37Rv)) (UniProt P9WMR3). In words: DnaB intein splicing inhibitors, dose response, biochemical, M. tuberculosis H37Rv, cell-free fluorescence (AID 449749).
Regarding `Cc1[nH][nH]c(=O)c1[C@@H](c1ccccc1[N+](=O)[O-])C(C#N)C#N`, the AC50 (in general, the concentration at which the activity in the assay is half-maximal) was > 38 µM (inactive).

`Oc1cc(O)c2c(c1)O[C@H](c1ccc(O)c(O)c1)[C@H](O)C2`: the AC50 is > 38 µM (inactive).

Regarding `Cc1[nH][nH]c(=O)c1C(c1ccccc1[N+](=O)[O-])C(C#N)C#N` (centres undefined), the AC50 is > 12 µM (inactive).

On to `COc1ccc2ccc3c(c2c1)N=C[C@]1(O3)N(C)c2ccccc2C1(C)C`, for which the AC50 is > 38 µM (inactive).
